The test deals with T1, Bcl-2 protein (Recombinant Human Bcl-2 Protein) (Homo sapiens, UniProt P10415).
T1 construct: purchased Novus NBP2-34889
The test is described as follows: Binding evaluation of mixture library compounds to Bcl-2 using AS-MS (affinity selection mass spectrometry). The procedure, abridged: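 Readout is ASMS Ratio (%), (A−C)/B×100, from reversed-phase LC/MS of SEC-passed extracts, with protein-free unfiltered standard (B) and protein-free SEC blank (C). Recombinant human Bcl-2 at 20 μM final met ~1200 pooled compounds at […] each for 1 h, 23° C., dark, in Tris-HCl pH 7.4 buffer.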

Structures are written as SMILES.

T1 sequence (P10415 whole entry): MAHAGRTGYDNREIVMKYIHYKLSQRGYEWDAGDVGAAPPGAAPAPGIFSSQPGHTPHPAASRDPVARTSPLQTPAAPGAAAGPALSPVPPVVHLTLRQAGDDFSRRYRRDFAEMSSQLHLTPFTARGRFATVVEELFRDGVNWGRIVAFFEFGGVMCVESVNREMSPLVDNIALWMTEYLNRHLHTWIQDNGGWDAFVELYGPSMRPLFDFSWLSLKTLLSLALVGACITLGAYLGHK

For the compound `CCOc1cccc(-c2ccccc2CCC(=O)N2CCN(c3ccc(C(=O)NS(=O)(=O)c4ccc(NCCSc5ccccc5)c(C(F)(F)F)c4)cc3)CC2)c1` [B2R033-01, 4-[4-[3-[2-(3-Ethoxyphenyl)phenyl]propanoyl]piperazin-1-yl]-N-[4-(2-phenylsulfanylethylamino)-3-(trifluoromethyl)phenyl]sulfonylbenzamide], the “ASMS ratio (%)” value reads like this: (n = 1) 3.6%; (n = 2) −6.6%.

With `CCOc1cncc(-c2ccccc2CCC(=O)N2CCN(c3ccc(C(=O)NS(=O)(=O)c4ccc(NCCSc5ccccc5)c(C(F)(F)F)c4)cc3)CC2)c1` [B2R034-01, 4-[4-[3-[2-(5-Ethoxypyridin-3-yl)phenyl]propanoyl]piperazin-1-yl]-N-[4-(2-phenylsulfanylethylamino)-3-(trifluoromethyl)phenyl]sulfonylbenzamide], the “ASMS ratio (%)” value reads like this: (n = 1) 0.1%; (n = 2) −1.3%.

Take `CCOc1cccc(-c2ccc(C(=O)N3CCN(c4ccc(C(=O)NS(=O)(=O)c5ccc(NCCSc6ccccc6)c(C(F)(F)F)c5)cc4)CC3)c3ccccc23)c1` [B2R035-01, 4-[4-[4-(3-Ethoxyphenyl)naphthalene-1-carbonyl]piperazin-1-yl]-N-[4-(2-phenylsulfanylethylamino)-3-(trifluoromethyl)phenyl]sulfonylbenzamide]: the “ASMS ratio (%)” value is, setting by setting: (n = 1) 8.3%; (n = 2) 0.9%.

Consider `CCOc1cncc(-c2ccc(C(=O)N3CCN(c4ccc(C(=O)NS(=O)(=O)c5ccc(NCCSc6ccccc6)c(C(F)(F)F)c5)cc4)CC3)c3ccccc23)c1` [B2R036-01, 4-[4-[4-(5-Ethoxypyridin-3-yl)naphthalene-1-carbonyl]piperazin-1-yl]-N-[4-(2-phenylsulfanylethylamino)-3-(trifluoromethyl)phenyl]sulfonylbenzamide], for which the “ASMS ratio (%)” value (n = 1) is 3.2% and the “ASMS ratio (%)” value (n = 2) is recorded as −0.8%.

Take `CCOc1cccc(-c2cc(C(=O)N3CCN(c4ccc(C(=O)NS(=O)(=O)c5ccc(NCCSc6ccccc6)c(C(F)(F)F)c5)cc4)CC3)cc(C(C)(C)C)c2)c1` [B2R037-01, 4-[4-[3-tert-Butyl-5-(3-ethoxyphenyl)benzoyl]piperazin-1-yl]-N-[4-(2-phenylsulfanylethylamino)-3-(trifluoromethyl)phenyl]sulfonylbenzamide]: the “ASMS ratio (%)” value reads like this: (n = 1) 6.3%; (n = 2) −7.0%.

With `CCOc1cncc(-c2cc(C(=O)N3CCN(c4ccc(C(=O)NS(=O)(=O)c5ccc(NCCSc6ccccc6)c(C(F)(F)F)c5)cc4)CC3)cc(C(C)(C)C)c2)c1` [B2R038-01, 4-[4-[3-tert-Butyl-5-(5-ethoxypyridin-3-yl)benzoyl]piperazin-1-yl]-N-[4-(2-phenylsulfanylethylamino)-3-(trifluoromethyl)phenyl]sulfonylbenzamide], the “ASMS ratio (%)” value (n = 1) came out at 7.1% and the “ASMS ratio (%)” value (n = 2) is −6.0%.

On to `CCOc1cccc(-c2cc(C(=O)N3CCN(c4ccc(C(=O)NS(=O)(=O)c5ccc(NCCSc6ccccc6)c(C(F)(F)F)c5)cc4)CC3)cc(C(F)(F)F)c2)c1` [B2R039-01, 4-[4-[3-(3-Ethoxyphenyl)-5-(trifluoromethyl)benzoyl]piperazin-1-yl]-N-[4-(2-phenylsulfanylethylamino)-3-(trifluoromethyl)phenyl]sulfonylbenzamide], for which the “ASMS ratio (%)” value reads like this: (n = 1) 9.7%; (n = 2) −4.8%.

For the compound `CCOc1cncc(-c2cc(C(=O)N3CCN(c4ccc(C(=O)NS(=O)(=O)c5ccc(NCCSc6ccccc6)c(C(F)(F)F)c5)cc4)CC3)cc(C(F)(F)F)c2)c1` [B2R040-01, 4-[4-[3-(5-Ethoxypyridin-3-yl)-5-(trifluoromethyl)benzoyl]piperazin-1-yl]-N-[4-(2-phenylsulfanylethylamino)-3-(trifluoromethyl)phenyl]sulfonylbenzamide], the “ASMS ratio (%)” value runs as follows: (n = 1) 2.6%; (n = 2) 0.2%.

On to `CCOc1cccc(C#Cc2cc(C(=O)N3CCN(c4ccc(C(=O)NS(=O)(=O)c5ccc(NCCSc6ccccc6)c(C(F)(F)F)c5)cc4)CC3)cc(C(F)(F)F)c2)c1` [B2R041-01, 4-[4-[3-[2-(3-Ethoxyphenyl)ethynyl]-5-(trifluoromethyl)benzoyl]piperazin-1-yl]-N-[4-(2-phenylsulfanylethylamino)-3-(trifluoromethyl)phenyl]sulfonylbenzamide], for which the “ASMS ratio (%)” value (n = 1) is 18.0% and the “ASMS ratio (%)” value (n = 2) was found to be 0.0%.

For the compound `CCOc1cncc(C#Cc2cc(C(=O)N3CCN(c4ccc(C(=O)NS(=O)(=O)c5ccc(NCCSc6ccccc6)c(C(F)(F)F)c5)cc4)CC3)cc(C(F)(F)F)c2)c1` [B2R042-01, 4-[4-[3-[2-(5-Ethoxypyridin-3-yl)ethynyl]-5-(trifluoromethyl)benzoyl]piperazin-1-yl]-N-[4-(2-phenylsulfanylethylamino)-3-(trifluoromethyl)phenyl]sulfonylbenzamide], the “ASMS ratio (%)” value (n = 1) is 3.4% and the “ASMS ratio (%)” value (n = 2) is given as 6.0%.

Regarding `CCOc1cccc(-c2cnn(-c3cc(C(=O)N4CCN(c5ccc(C(=O)NS(=O)(=O)c6ccc(NCCSc7ccccc7)c(C(F)(F)F)c6)cc5)CC4)cc(C(F)(F)F)c3)c2)c1` [B2R043-01, 4-[4-[3-[4-(3-Ethoxyphenyl)pyrazol-1-yl]-5-(trifluoromethyl)benzoyl]piperazin-1-yl]-N-[4-(2-phenylsulfanylethylamino)-3-(trifluoromethyl)phenyl]sulfonylbenzamide], the “ASMS ratio (%)” value (n = 1) was determined as 3.4% and the “ASMS ratio (%)” value (n = 2) was −9.0%.

As for `CCOc1cncc(-c2cnn(-c3cc(C(=O)N4CCN(c5ccc(C(=O)NS(=O)(=O)c6ccc(NCCSc7ccccc7)c(C(F)(F)F)c6)cc5)CC4)cc(C(F)(F)F)c3)c2)c1` [B2R044-01, 4-[4-[3-[4-(5-Ethoxypyridin-3-yl)pyrazol-1-yl]-5-(trifluoromethyl)benzoyl]piperazin-1-yl]-N-[4-(2-phenylsulfanylethylamino)-3-(trifluoromethyl)phenyl]sulfonylbenzamide], the “ASMS ratio (%)” value is given as −3.7% (n = 1) and −4.1% (n = 2).

As to `CCOc1cccc(-c2ccc(CN3CCN(c4ccc(C(=O)NS(=O)(=O)c5ccc(NCCSc6ccccc6)c(C(F)(F)F)c5)cc4)CC3)cc2C)c1` [B2R047-01, 4-[4-[[4-(3-Ethoxyphenyl)-3-methylphenyl]methyl]piperazin-1-yl]-N-[4-(2-phenylsulfanylethylamino)-3-(trifluoromethyl)phenyl]sulfonylbenzamide], the “ASMS ratio (%)” value runs as follows: (n = 1) 6.6%; (n = 2) −7.8%.

Consider `CCOc1cncc(-c2ccc(CN3CCN(c4ccc(C(=O)NS(=O)(=O)c5ccc(NCCSc6ccccc6)c(C(F)(F)F)c5)cc4)CC3)cc2C)c1` [B2R048-01], for which the “ASMS ratio (%)” value (n = 1) is given as 9.2% and the “ASMS ratio (%)” value (n = 2) was determined as 7.5%.

For the compound `CCOc1cccc(-c2ccc(CN3CCN(c4ccc(C(=O)NS(=O)(=O)c5ccc(NCCSc6ccccc6)c(C(F)(F)F)c5)cc4)CC3)c(CC)c2)c1` [B2R049-01, 4-[4-[[4-(3-Ethoxyphenyl)-2-ethylphenyl]methyl]piperazin-1-yl]-N-[4-(2-phenylsulfanylethylamino)-3-(trifluoromethyl)phenyl]sulfonylbenzamide], the “ASMS ratio (%)” value is listed as 7.5% (n = 1) and −5.5% (n = 2).

Consider `CCOc1cncc(-c2ccc(CN3CCN(c4ccc(C(=O)NS(=O)(=O)c5ccc(NCCSc6ccccc6)c(C(F)(F)F)c5)cc4)CC3)c(CC)c2)c1` [B2R050-01, 4-[4-[[4-(5-Ethoxypyridin-3-yl)-2-ethylphenyl]methyl]piperazin-1-yl]-N-[4-(2-phenylsulfanylethylamino)-3-(trifluoromethyl)phenyl]sulfonylbenzamide], for which the “ASMS ratio (%)” value was 0.0% (n = 1) and 0.0% (n = 2).

On to `CCOc1cccc(-c2ccc(CN3CCN(c4ccc(C(=O)NS(=O)(=O)c5ccc(NCCSc6ccccc6)c(C(F)(F)F)c5)cc4)CC3)cc2F)c1` [B2R051-01, 4-[4-[[4-(3-Ethoxyphenyl)-3-fluorophenyl]methyl]piperazin-1-yl]-N-[4-(2-phenylsulfanylethylamino)-3-(trifluoromethyl)phenyl]sulfonylbenzamide], for which the “ASMS ratio (%)” value by setting is: (n = 1) 12.7%; (n = 2) −1.8%.

Take `CCOc1cncc(-c2ccc(CN3CCN(c4ccc(C(=O)NS(=O)(=O)c5ccc(NCCSc6ccccc6)c(C(F)(F)F)c5)cc4)CC3)cc2F)c1` [B2R052-01, 4-[4-[[4-(5-Ethoxypyridin-3-yl)-3-fluorophenyl]methyl]piperazin-1-yl]-N-[4-(2-phenylsulfanylethylamino)-3-(trifluoromethyl)phenyl]sulfonylbenzamide]: the “ASMS ratio (%)” value reads like this: (n = 1) 0.0%; (n = 2) −7.4%.

`CCOc1cccc(-c2ccc(CN3CCN(c4ccc(C(=O)NS(=O)(=O)c5ccc(NCCSc6ccccc6)c(C(F)(F)F)c5)cc4)CC3)c(OC)c2)c1` [B2R053-01, 4-[4-[[4-(3-Ethoxyphenyl)-2-methoxyphenyl]methyl]piperazin-1-yl]-N-[4-(2-phenylsulfanylethylamino)-3-(trifluoromethyl)phenyl]sulfonylbenzamide]: the “ASMS ratio (%)” value by setting is: (n = 1) −15.0%; (n = 2) 0.0%.

Consider `CCOc1cncc(-c2ccc(CN3CCN(c4ccc(C(=O)NS(=O)(=O)c5ccc(NCCSc6ccccc6)c(C(F)(F)F)c5)cc4)CC3)c(OC)c2)c1` [B2R054-01, 4-[4-[[4-(5-Ethoxypyridin-3-yl)-2-methoxyphenyl]methyl]piperazin-1-yl]-N-[4-(2-phenylsulfanylethylamino)-3-(trifluoromethyl)phenyl]sulfonylbenzamide], for which the “ASMS ratio (%)” value (n = 1) was 3.3% and the “ASMS ratio (%)” value (n = 2) is reported as −0.8%.

Turning to `CCOc1cccc(-c2cc(CN3CCN(c4ccc(C(=O)NS(=O)(=O)c5ccc(NCCSc6ccccc6)c(C(F)(F)F)c5)cc4)CC3)cc(OCC)c2)c1` [B2R055-01, 4-[4-[[3-Ethoxy-5-(3-ethoxyphenyl)phenyl]methyl]piperazin-1-yl]-N-[4-(2-phenylsulfanylethylamino)-3-(trifluoromethyl)phenyl]sulfonylbenzamide], the “ASMS ratio (%)” value is on record as −3.3% (n = 1) and 6.3% (n = 2).

For the origin of these results see patent publication US20240132431A1, “METHOD FOR ALKYLATING ACIDIC FUNCTIONAL GROUP” (Chugai Seiyaku Kabushiki Kaisha, priority 2021, published 2024).
